Patent publication US20250171762A1, “THERAPEUTICAL PEPTIDOMIMETIC” (UNIVERSITA' DEGLI STUDI DI ROMA "LA SAPIENZA", priority 2021, published 2025)
Entries after “also recorded” stand apart in the source; their conditions may differ. Read-outs that look alike come from different tables or passages of the source.

Legend:
[1] = Plasma stability: incubation in human plasma, UPLC-MS quantification; assay type: in vitro ADME; details: for remaining at 3 h, 0.2 mM: read-out: peptide available after incubation in plasma
Protocol: Panel B. Time course decay of β32_33, PMT, PMT-8a and PMT-8b incubated up to 72 h with human plasma from four healthy subjects. […] The Y axis indicates the signal intensity of the four peptides. Samples of plasma were obtained from healthy volunteers and immediately used for the analysis. Either β32_33 peptide or PMT for the experiment in panel A, and β32_33 peptide, PMT, PMT-8a or PMT-8b for the experiment in panel B, was incubated in plasma at a final concentration of 0.2 mM, at 37° C., up to 3 h (A) or 72 h (B). At the indicated time points, i.e., T0 and 3 h (A) or T0, 1.5, 3, 6 and 72 h (B), aliquots of 200 μL were treated with 3 volumes of acetonitrile containing 1% formic acid and extracted by a solid phase extraction system to remove proteins and phospholipids. Samples were dried under vacuum, resuspended in 100 μL of 0.1% formic acid containing 5% acetonitrile, and analyzed with a Water Acquity H-Class UPLC system equipped with a single-quadruple mass detector with electrospray ionization source. Samples were separated onto a reverse phase C18 column by performing a gradient with two mobile phases consisting of 0.1% formic acid in water and 0.1% formic acid in acetonitrile at a flow rate of 0.5 mL/min. Quantification was performed by Selected lon Recording (SIR): at m/z=917.88, corresponding to the [M+2 H]^2+ion obtained from either β32_33 or PMT; at m/z=961.42, corresponding to the [M+H]^+ion obtained from PMT-8a; and at m/z=869.48, corresponding to the [M+H]^+ion obtained from PMT-8b.
In order to evaluate whether compounds (βp and d-βp) are stable in blood or hydrolyzed by plasma peptidases, we set up a chromatographic assay to evaluate compound concentration after incubation in human plasma.
Blood was drawn by venipuncture in vacutainer containing EDTA as an anticoagulant.
Two different samples from healthy volunteers were used. Plasma was separated by centrifugation and immediately used for the experiments. Each compound was dissolved in 500 uL plasma at a final concentration of 0.2 mM, and split into two aliquots, one of which was immediately analyzed to assess the basal compound level; the other was incubated at 37° C. for 3 hours under gentle shaking. In order to perform chromatographic analysis the samples were treated with 3 volumes of acetonitrile containing 1% formic acid, and then extracted by using the Ostro™ pass-through sample preparation system to remove proteins and phospholipids. Samples were dried under vacuum and then resuspended in 100 uL of 0.1% formic acid containing 5% acetonitrile, then directly injected onto the chromatographic column.
Chromatographic analyses were performed on a Water Acquity H-Class UPLC system (Waters, Milford, MA, USA), including a quaternary solvent manager (QSM), a sample manager with a flow through needle system (FTN), a photodiode array detector (PDA) and a single-quadruple mass detector with electrospray ionization source (ACQUITY QDa). Analyses were performed on a reverse phase C18 column (75 mm×3.2 mm i.d., 2.5 μm particle size). The mobile phase was solvent A, 0.1% formic acid in water, and solvent B, 0.1% formic acid in acetonitrile. The flow rate was 0.5 mL/min, the column temperature was set at 25° C. and the elution was performed by linearly increasing the concentration of solvent B up to 70% in 7 minutes. Mass spectrometric detection was performed in the positive electrospray ionization mode, using nitrogen as the nebulizer gas. Analyses were performed in the Total lon Current (TIC) mode with a mass range of 100-1200 m/z. The capillary voltage was 0.8 kV, cone voltage 8 V, ion source temperature 120° C. and probe temperature 600° C. Quantification of each compound was performed by Selected lon Recording (SIR) at m/z 917.88, corresponding to the […]

[2] = tested on: m·3243A>G mt-tRNA^Leu(UUR) mutant cybrids; test: Cell viability, Trypan blue dye exclusion, galactose vs glucose medium; assay type: cell-based, human; details: for viability of mutant cybrids vs non treated mutant cells: galactose medium
Protocol: For viability assessment, cells were plated in either glucose or galactose medium. The reason for this is that a viability phenotype can be appreciated in cells growing on galactose, which forces cells to rely on mitochondrial respiration, but not in cells growing on glucose. After 24 hours incubation, the number of viable cells in the galactose medium was normalized to the number of viable cells in glucose at the same time point, which represents the normal growth condition. Data are compared with the value of mutant cells incubated with vehicle only. Mean±SEM of at least three independent experiments is shown.
For viability assessment, cells were plated in either glucose or galactose medium. The reason for this is that a viability phenotype can be appreciated in cells growing on galactose, which forces cells to rely on mitochondrial respiration, but not in cells growing on glucose. After 24 hours incubation the number of viable cells in galactose medium was normalized to the number of viable cells in glucose (that represents the normal growth condition) at the same time point. Data are compared with the value of mutant cells incubated with vehicle only. Means±SEM of at least two independent experiments are shown.
Previously established osteosarcoma derived (143B.TK-) cybrid cell lines from patients, which bear either the m·3243A>G mutation in mt-tRNA^Leu(UUR) or the m·8344A>G mutation in mt-tRNA^Lys, and controls were used (generous gift from Dr Valeria Tiranti and Dr Valerio Carelli).
Cybrid cells were cultured in Dulbecco's modified Eagle's medium (DMEM), supplemented with 4.5 g/l d-glucose, 10% foetal bovine serum (FBS), 2 mM I-glutamine, 50 μg/ML uridine, 100 U/mL penicillin, and […] (referred to as glucose medium) in a humidified atmosphere of 95% air and 5% CO2 at 37° C. For cell viability experiments, cells were grown either in glucose medium or in glucose-free DMEM, supplemented with 5 mM galactose, […] sodium pyruvate, and 10% FBS (referred to as galactose medium). The reason for using the latter medium is that a pathological phenotype can be appreciated in cells growing on galactose, which forces cells to rely on mitochondrial respiration, but not in cells growing on glucose.
[…] Cells were switched in glucose or galactose and after 24 hours cell viability was measured by the Trypan blue dye exclusion assay. Cells were harvested with 0.25% trypsin and 0.2% EDTA, washed, suspended in PBS in the presence of Trypan blue solution (Sigma-Aldrich) at 1:1 ratio and counted using a hemocytometer. The number of viable cells in galactose medium was expressed as a percentage of the number of cells in glucose medium.
(§1) To evaluate the effect of the compounds on viability, cybrids were grown in glucose-free medium supplemented with galactose (galactose medium), a condition that both forces cells to rely on the mt respiratory chain for ATP synthesis and causes a significant growth reduction in the presence of mutations.
as §1, with “PMT and M-PMT” for “the compounds”

[3] = first experiment, plasma of two healthy volunteers, 37° C., 0.2 mM, 3 hours (FIG. 4A)
[4] = human, human plasma (EDTA) from healthy volunteers, first experiment, plasma of two healthy volunteers, 37° C., 0.2 mM, 3 hours (FIG. 4A)
[5] = second experiment, plasma of four healthy volunteers, 3 hours (FIG. 4B)

| Molecule | peptide available after incubation in plasma [1, 3] [%] | detectable degradation in plasma ([1]; first experiment, plasma of two healthy volunteers, 3 hours) | plasma stability compared with another peptide ([1]; human plasma, FIG. 4) | remaining at 3 h, 0.2 mM [1, 4] [%] | remaining at 6 h, 0.2 mM ([1]; human, human plasma from healthy volunteers, second experiment, 6 h, read-out: peptide present after incubation in plasma) [%] | peptide available after incubation in plasma [1, 5] [%] | detectable degradation in plasma ([1]; second experiment, plasma of four healthy volunteers, up to 72 h) | degraded peptide after incubation in plasma ([1]; first experiment, plasma of two healthy volunteers, 37° C., 3 hours (FIG. 4A)) | metabolised at 3 h, 0.2 mM ([1]; human, human plasma (EDTA) from healthy volunteers, first experiment, plasma of two healthy volunteers, 37° C., 3 hours (FIG. 4A), read-out: degraded peptide after incubation in plasma) [%] | metabolised at 6 h, 0.2 mM ([1]; human, human plasma from healthy volunteers, second experiment, 6 h, read-out: peptide degraded after incubation in plasma) [%] | remaining at 1.5 h, 0.2 mM ([1]; human, human plasma from healthy volunteers, second experiment, plasma of four healthy volunteers, 1.5 h (FIG. 4B), read-out: starting amount present after incubation in plasma) [%] | remaining at 3 h, 0.2 mM ([1]; human, human plasma from healthy volunteers, second experiment, plasma of four healthy volunteers, 3 hours (FIG. 4B)) [%] | viability of mutant cybrids vs non treated mutant cells ([2]; 0.5 μM, 24 hours (FIG. 6)) | viability of mutant cybrids vs non treated mutant cells ([2]; 2 μM, 24 hours (FIG. 6)) | viability of mutant cybrids vs non treated mutant cells ([2]; 5 μM, 24 hours) | lower concentration improving viability with respect to PMT ([2]; m·3243A>G mutant cybrids, FIG. 6) [fold] |
| --- | --- | --- | --- | --- | --- | --- | --- | --- | --- | --- | --- | --- | --- | --- | --- | --- |
| CC[C@@H](C)[C@@H](NC(=O)[C@@H](CC(C)C)NC(=O)[C@@H](C)NC(=O)[C@H](NC(=O)[C@@H](CCCNC(=N)N)NC(=O)[C@H]1CCCN1C(=O)[C@@H](CO)NC(=O)[C@@H](CC(C)C)NC(=O)[C@@H](Cc1ccccc1)NC(=O)[C@@H](CO)NC(=O)[C@@H](CCCCN)NC(=O)[C@H](N)CCCCN)[C@H](C)O)C(=O)N[C@H](CC(N)=O)C(=O)N[C@H](Cc1ccccc1)C(=O)N[C@H](CC(C)C)C(=O)N[C@@H](C(=O)O)C(C)C [PMT, d(K)d(K)d(S)d(F)d(L)d(S)d(P)d(R)d(T)d(A)d(L)d(I)d(N)d(F)d(L)d(V)] | 100 | does not undergo visible degradation; also recorded: did not undergo detectable degradation | consistently higher stability than the β32_33 peptide; also recorded: higher plasma stability than the β32_33 peptide at all time points; also recorded: slower degradation than the β32_33 peptide | 100 | > 50 | > 63 | did undergo detectable degradation |  |  |  |  |  |  |  |  |  |
| CC[C@H](C)[C@H](NC(=O)[C@H](CC(C)C)NC(=O)[C@H](C)NC(=O)[C@@H](NC(=O)[C@H](CCCNC(=N)N)NC(=O)[C@@H]1CCCN1C(=O)[C@H](CO)NC(=O)[C@H](CC(C)C)NC(=O)[C@H](Cc1ccccc1)NC(=O)[C@H](CO)NC(=O)[C@H](CCCCN)NC(=O)[C@@H](N)CCCCN)[C@@H](C)O)C(=O)N[C@@H](CC(N)=O)C(=O)N[C@@H](Cc1ccccc1)C(=O)N[C@@H](CC(C)C)C(=O)N[C@H](C(=O)O)C(C)C [β32_33, KKSFLSPRTALINFLV, reference compound] | 70 |  |  | 70 |  | 17 |  | at least 30% | 30 | 90 | > 85 | 17 |  |  |  |  |
| FRFKKKSFLSPRTALINFLV (SITE 1 d-Phenylalanine; SITE 2 d-Arginine; SITE 3 d-Phenylalanine; SITE 4 d-Lysine; SITE 5 d-Lysine; SITE 6 d-Lysine; SITE 7 d-Serine; SITE 8 d-Phenylalanine; SITE 9 d-Leucine; SITE 10 d-Serine; SITE 11 d-Proline; SITE 12 d-Arginine; SITE 13 d-Threonine; SITE 14 d-Alanine; SITE 15 d-Leucine; SITE 16 d-Isoleucine; SITE 17 d-Asparagine; SITE 18 d-Phenylalanine; SITE 19 d-Leucine; SITE 20 d-Valine) [M-PMT] |  |  |  |  |  |  |  |  |  |  |  |  | significantly improves | significantly improved | significantly improved | 10 |
